Experiments:
[1] = system: MDAMB231 breast cancer cell line; test: In vitro antiproliferative assay (MTT assay), MDAMB231; type: cell-based; conditions: Homo sapiens, MDA-MB-231, 48 h, 48 hrs drug incubation, read-out: IC50 in micromolar, MDAMB231 (MTT assay)
Procedure: (§1) MTT assay is a simple and sensitive assay where, metabolic reducing activity of the cells is measured. The increase of this activity in time is taken as a parameter of cell growth. If treatment with a drug impairs this increase, the action is a consequence of growth inhibition, cell killing or both. […] All cell lines were cultured in a 37° C. incubator with a 5% CO2 environment. Compounds were dissolved in DMSO with a concentration of 0.1M (stock solution). Cells were seeded into 96-well plates at suitable plating efficiency.
(§2) Following plating efficiencies were standardized for MTT assay:
(§3) In the MTT procedure, the cells were plated in 96 well plates as per predetermined plating efficiency (Table1). The plates were then incubated for 24 hrs in 5% CO2 atmosphere at 37° C. Appropriate concentrations of the drugs were then added to the plate and further incubation was carried out for 48 hrs (in 5% CO2 atmosphere at 37° C.). The assay plate was then centrifuged twice at 3000 rpm for 3 mins and supernatant was then discarded. 100 ul of MTT solution (0.5 mg/ml) was then added to each well of the plate and it was further incubated for 4 hrs (in 5% CO2 atmosphere at 37° C.) Following 4 hr incubation, the plate was then centrifuged twice, and supernatant was aspirated off very carefully. 200 ul of DMSO was then added to each well to solubilize. MTT crystals and mixed well by shaking the plate. XY graph of log percent viability was then plotted against log drug concentration.

[2] = system: MDAMB231 breast cancer cell line; test: Soft agar colony-formation assay, MDAMB231; type: cell-based; conditions: Homo sapiens, MDA-MB-231, 168 h, 1 week, Alamar Blue, read-out: IC50 in micromolar, MDAMB231 (Soft Agar Assay)
Procedure: (§4) The Soft Agar Colony-formation Assay is an anchorage-independent growth assay in soft agar, which is one of the most stringent assays for detecting malignant transformation of cells. For this assay, malignant cells are cultured with appropriate controls in soft agar medium for 1-2 weeks. Following this incubation period, formed colonies can either be analyzed morphologically using cell stain and quantifying the number of colonies formed.
(§5) Briefly, for Soft Agar Assay a mixture of 50 ul of 2× medium (taken appropriately as per cell line) and 50 ul of 1.2% Bacto Agar were plated on to each well of 96 well micro titer assay plate. 10 ul of cells (of specific plating efficiency pre standardized for respective cell line) were mixed with 20 ul of 2× medium and 30 ul of 0.8% of Bacto Agar and 1.6 ul of drug (of appropriate concentration) in a vial and transferred to the solidified pre layers of the assay plates. The cells were then allowed to grow and form colonies at 37° C. and 5% C02 for 1 week. An intermittent feeding with 50 ul of appropriate 2× medium was performed after 3 days of experimental set up. 16 ul of Alamar Blue (1.5 mg/ml) was then added to all the wells to quantify the developed colonies. The plates were incubated for 24 hrs at 37° C. Absorbance was then measured at 630 nm. XY graph of log Percent viability was then plotted against log drug concentration.
(§6) Following plating efficiencies were standardized for Soft Agar Assay: […]

[3] = system: MDAMB231 spheres (cancer stem cells); test: In vitro sphere-forming assay (cancer stem cells), MDAMB231 in Mammosphere media; conditions: for 3D sphere count of MDAMB231 in Mammosphere media: 2000 cells/well, n = 6 ± S.D; for viability at 0.0025 µM / viability at 0.025 µM / viability at 0.25 µM / viability at 2.5 µM / viability at 25 µM: Homo sapiens, MDA-MB-231, read-out: % Viability of spheres (MDAMB231)
Procedure: (§7) In Vitro Sphere-forming Assay: Sphere assay measures the ability of cancer stem cells (CSCs) to form spheres in specially designed serum-free medium.
Mammosphere Media Preparation (For 100 mL): 1 g methyl cellulose autoclaved with magnetic stirrer, 100 ml plain media (MEBM) was added and dissolved under magnetic stirring. After complete dissolution FGF—80 μL, EGF—40 μL, Penstrep—1 mL, Heparin—400 μL was added.
(§8) Procedure—The cells were trypsinised and made into single-cell suspension by passing through cell strainers (100 μl and 40 μl, respectively), The cells were diluted at a concentration of 2000 cells/100 μL and suspended in either Mammosphere (for breast cell lines) or Prostosphere (for prostate cell lines). 100 μL of this suspension was added into each well of 96-well suspension plates and incubated at 37 C, 50 CO2 for 24 hrs. Appropriate concentrations of the drugs (2 L) were added into respective wells with 100 μL of stem cell culture medium. Plates were incubated at 37° C., 50% CO2 for 72 hrs. After incubation, 2.5 μL of the respective drug concentration and 50 μL of stem cell culture medium were added into each well and the plates were further incubated at 37° C., 500 CO2 for 72 hrs. 3 μL of the respective drug concentration was added with 50 μL of stem cell culture medium again after incubation and plates were reincubated for 72 hrs at 37° C., 500 CO2. Number of primary spheres formed for each concentration were counted. The spheres were converted to 0 viability of spheres compared to untreated (Growth Control with DMSO, GCD).

[4] = system: PC3 prostate cancer cell line; test: In vitro antiproliferative assay (MTT assay), PC3; type: cell-based; conditions: 48 h, 48 hrs drug incubation, read-out: IC50 in micromolar, PC3 (MTT assay)
Procedure: as §1, §2, §3

[5] = system: PC3 prostate cancer cell line; test: Soft agar colony-formation assay, PC3; type: cell-based; conditions: 168 h, 1 week, Alamar Blue, read-out: IC50 in micromolar, PC3 (Soft Agar Assay)
Procedure: as §4, §5, §6

[6] = system: PC3 spheres (cancer stem cells); test: In vitro sphere-forming assay (cancer stem cells), PC3 in Prostosphere media; conditions: for 3D sphere count of PC3 in Prostosphere media: 2000 cells/well, n = 6 ± S.D; for viability at 0.0025 µM: read-out: % Viability of spheres (PC3), 0.0025 uM; for viability at 0.0025 µM / viability at 0.025 µM / viability at 0.25 µM / viability at 2.5 µM / viability at 25 µM: GCD = 100% viability; for viability at 0.025 µM: read-out: % Viability of spheres (PC3), 0.025 uM; for viability at 0.25 µM: read-out: % Viability of spheres (PC3), 0.25 uM; for viability at 2.5 µM: read-out: % Viability of spheres (PC3), 2.5 uM; for viability at 25 µM: read-out: % Viability of spheres (PC3), 25 uM
Excerpt: as §7
Materials and Reagents:50×B27 Supplement (Life Technologies, Invitrogen, Catlog No.: 17502-044), Fibroblast Growth Factor (FGF) (Sigma-Aldrich, Catlog No.: F029125), Epidermal Growth Factor (EGF) (Sigma-Aldrich, Catlog No.: E9644), Insulin (Sigma, Catlog No.: 19278), Dulbecco's Modified Eagle Medium/F12 (HiMedia Catlog No.: AL139-6), Dulbecco's Phosphate Buffered Saline (HiMedia Catlog No.: TL1006), Trypan Blue (TC193), Prostate Epithelial Media (LONZA, Catlog No.: CC-3166) MEGM (LONZA, Catlog No.: CC-3051), Heparin (Sigma, Catlog No.: H3393), Penstrep (HiMedia, Catlog No.: A002)
Prostosphere Media Preparation (For 100 mL): 1 g methyl cellulose autoclaved with magnetic stirrer, 100 mL plain media (Prostate Epithelial Basal Medium) was added and dissolved, under magnetic stirring. After complete dissolution, Insulin—40 μL, B27—2 mL, EGF—80 μL, Penstrep—1 ml was added.
as §8

[7] = system: DU145 prostate cancer cell line; test: In vitro antiproliferative assay (MTT assay), DU145; type: cell-based; conditions: Homo sapiens, DU-145, 48 h, 48 hrs drug incubation, read-out: IC50 in micromolar, DU145 (MTT assay)
Procedure: as §1, §2, §3

SMILES | IC50 [1] [µM] | IC50 [2] [µM] | 3D sphere count of MDAMB231 in Mammosphere media ([3]; 0.0025 uM) | 3D sphere count of MDAMB231 in Mammosphere media ([3]; 0.025 uM) | 3D sphere count of MDAMB231 in Mammosphere media ([3]; 0.25 uM) | 3D sphere count of MDAMB231 in Mammosphere media ([3]; 2.5 uM) | 3D sphere count of MDAMB231 in Mammosphere media ([3]; 25 uM) | viability at 0.0025 µM [3] [%] | viability at 0.025 µM [3] [%] | viability at 0.25 µM [3] [%] | viability at 2.5 µM [3] [%] | viability at 25 µM [3] [%] | IC50 [4] [µM] | IC50 [5] [µM] | 3D sphere count of PC3 in Prostosphere media ([6]; 0.0025 uM) | 3D sphere count of PC3 in Prostosphere media ([6]; 0.025 uM) | 3D sphere count of PC3 in Prostosphere media ([6]; 0.25 uM) | 3D sphere count of PC3 in Prostosphere media ([6]; 2.5 uM) | 3D sphere count of PC3 in Prostosphere media ([6]; 25 uM) | viability at 0.0025 µM [6] [%] | other results
c1ccc2c(-c3ccc4c(c3)OCO4)ccc(OCCCCN3CCOCC3)c2c1 [Formula VIII, 4-(4-(1-(benzo[d][1,3]dioxol-5-yl)naphthalen-4-yloxy)butyl)morpholine] | 1.15 | 1.73 | 54(±3) | 49(±4) | 39(±2) | 28(±3) | 19(±1) | 76 | 69 | 55 ± 2 | 39 | 26 | 1.77 | 2.07 | 57(±2) | 49(±3) | 41(±2) | 36(±2) | 28(±3) | 69 | viability at 0.025 µM [6]: 59%; viability at 0.25 µM [6]: 50%; viability at 2.5 µM [6]: 44%; viability at 25 µM [6]: 34%; IC50 [7]: 0.723 µM
c1ccc2c(-c3ccc4c(c3)OCO4)ccc(OCCN3CCOCC3)c2c1 [Formula X, 4-(2-(1-(benzo[d][1,3]dioxol-5-yl)naphthalen-4-yloxy)ethyl)morpholine] | 5.36 | 4.18 | 57(±5) | 42(±4) | 34(±3) | 21(±3) | 7(±3) | 69 | 51 | 41 | 25 | 8 | 4 | 10.3 | 74(±4) | 61(±3) | 53(±3) | 42(±4) | 28(±3) | 87 | viability at 0.025 µM [6]: 72%; viability at 0.25 µM [6]: 62%; viability at 2.5 µM [6]: 49%; viability at 25 µM [6]: 33%; IC50 [7]: 5.96 µM
O=C1OCc2c1c(-c1ccc3c(c1)OCO3)c1cc3c(cc1c2OCCN1CCOCC1)OCO3 [Formula XI, 4-(2-morpholinoethoxy)-9-(benzo[d][1,3]dioxol-5-yl)-6,7-methylenedioxynaphtho[2,3-c]furan-1(3H)-one] | 3.2 | 2.7 | 51(±3) | 41(±3) | 31(±3) | 20(±3) | 0(±0) | 64 | 52 | 39 | 25 | 0 | 12.6 | 5.12 | 51(±3) | 43(±3) | 32(±4) | 21(±3) | 0(±0) | 62 | viability at 0.025 µM [6]: 52%; viability at 0.25 µM [6]: 39%; viability at 2.5 µM [6]: 25%; viability at 25 µM [6]: 0%; IC50 [7]: 8.18 µM
COc1cccc(-c2ccc(OCCN3CCOCC3)c3ccccc23)c1 [Formula XII, 4-(2-(1-(3-methoxyphenyl)naphthalen-4-yloxy)ethyl)morpholine] | 2.7 | 3.33 | 47(±4) | 41(±3) | 34(±3) | 30(±3) | 9(±3) | 59 | 52 | 43 | 38 | 11 | 3.98 | 4.07 | 50(±3) | 42(±3) | 36(±3) | 28(±3) | 9(±3) | 61 | viability at 0.025 µM [6]: 51%; viability at 0.25 µM [6]: 44%; viability at 2.5 µM [6]: 34%; viability at 25 µM [6]: 11%; IC50 [7]: 2.59 µM

— patent US12459930B2, “Compounds for the inhibition of unregulated cell growth” (GODAVARI BIOREFINERIES LIMITED, priority 2018, dated 2025)
